In PubChem BioAssay (NCI):
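Five compound concentrations were applied to cells in 96-well plates for 48 hours; endpoints were derived by simple linear interpolation of the resulting dose-response curve. GI50: concentration for 50% inhibition of growth. TGI: total growth inhibition.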

How the values were obtained:
Assay in all cases: NCI tumour cell line growth inhibition, 48 h
[1] = system: 786-0 renal
[2] = system: A498 renal
[3] = system: A549 NSCLC
[4] = system: ACHN renal
[5] = system: BT-549 breast
[6] = system: CAKI-1 renal
[7] = system: CCRF-CEM leukemia
[8] = system: COLO 205 colon
[9] = system: DU-145 prostate
[10] = system: EKVX NSCLC
[11] = system: HCC-2998 colon
[12] = system: HCT-116 colon
[13] = system: HCT-15 colon
[14] = system: HL-60(TB) leukemia
[15] = system: HOP-62 NSCLC
[16] = system: HOP-92 NSCLC
[17] = system: HS 578T breast
[18] = system: HT29 colon
[19] = system: IGROV1 ovarian
[20] = system: K-562 leukemia
[21] = system: KM12 colon
[22] = system: LOX IMVI melanoma
[23] = system: M14 melanoma
[24] = system: MALME-3M melanoma
[25] = system: MCF7 breast
[26] = system: MDA-MB-231 breast
[27] = system: MDA-MB-435
[28] = system: MOLT-4 leukemia
[29] = system: NCI-H226 lung
[30] = system: NCI-H23 lung
[31] = system: NCI-H460 lung
[32] = system: NCI-H522 lung
[33] = system: NCI/ADR-RES ovarian
[34] = system: OVCAR-3 ovarian
[35] = system: OVCAR-4 ovarian
[36] = system: OVCAR-5 ovarian
[37] = system: OVCAR-8 ovarian
[38] = system: PC-3 prostate
[39] = system: RPMI-8226 leukemia
[40] = system: RXF 393 renal
[41] = system: SF-268 CNS
[42] = system: SF-295 CNS
[43] = system: SF-539 CNS
[44] = system: SK-MEL-2 melanoma
[45] = system: SK-MEL-28 melanoma
[46] = system: SK-MEL-5 melanoma
[47] = system: SK-OV-3 ovarian
[48] = system: SN12C renal
[49] = system: SNB-19 CNS
[50] = system: SNB-75 CNS
[51] = system: SR leukemia
[52] = system: SW-620 colon
[53] = system: T-47D breast
[54] = system: TK-10 renal
[55] = system: U251 CNS
[56] = system: UACC-257 melanoma
[57] = system: UACC-62 melanoma
[58] = system: UO-31 renal

Q: What does the source list for `CCO/C=N/C1=C(C#N)C(c2ccc(OC)cc2)c2sc3c(C)cccc3c2O1` (stereo unspecified)?
A: GI50 [1]: 469 nM; TGI [1]: > 62400 nM; GI50 [2]: 291 nM; TGI [2]: 1100 nM; GI50 [3]: 898 nM; TGI [3]: > 100000 nM; GI50 [4]: 699 nM; TGI [4]: > 100000 nM; GI50 [5]: 650 nM; TGI [5]: > 58500 nM; GI50 [6]: 321 nM; TGI [6]: > 100000 nM; GI50 [7]: 459 nM; TGI [7]: > 100000 nM; GI50 [8]: 818 nM; TGI [8]: 6690 nM; GI50 [9]: 571 nM; TGI [9]: > 100000 nM; GI50 [10]: 932 nM; TGI [10]: > 100000 nM; GI50 [11]: 1070 nM; TGI [11]: 7780 nM; GI50 [12]: 402 nM; TGI [12]: > 38400 nM; GI50 [13]: 447 nM; TGI [13]: > 38100 nM; GI50 [14]: 290 nM; TGI [14]: 1730 nM; GI50 [15]: 552 nM; TGI [15]: > 60300 nM; GI50 [16]: 851 nM; TGI [16]: > 55200 nM; GI50 [17]: 350 nM; TGI [17]: > 47800 nM; GI50 [18]: 1140 nM; TGI [18]: 35500 nM; GI50 [19]: 515 nM; TGI [19]: > 100000 nM; GI50 [20]: 333 nM; TGI [20]: > 100000 nM; GI50 [21]: 452 nM; TGI [21]: > 100000 nM; GI50 [22]: 665 nM; TGI [22]: > 40300 nM; GI50 [23]: 421 nM; TGI [23]: > 45000 nM; GI50 [24]: 603 nM; TGI [24]: > 100000 nM; GI50 [25]: 347 nM; TGI [25]: > 81200 nM; GI50 [26]: 1570 nM; TGI [26]: > 45000 nM; GI50 [27]: 243 nM; TGI [27]: 677 nM; GI50 [28]: 540 nM; TGI [28]: > 24300 nM; GI50 [29]: 457 nM; TGI [29]: > 30700 nM; GI50 [30]: 545 nM; TGI [30]: > 100000 nM; GI50 [31]: 407 nM; TGI [31]: > 100000 nM; GI50 [32]: 426 nM; TGI [32]: 10000 nM; GI50 [33]: 444 nM; TGI [33]: > 100000 nM; GI50 [34]: 394 nM; TGI [34]: > 100000 nM; GI50 [35]: 1480 nM; TGI [35]: > 100000 nM; GI50 [36]: 3160 nM; TGI [36]: > 100000 nM; GI50 [37]: 716 nM; TGI [37]: > 100000 nM; GI50 [38]: 494 nM; TGI [38]: > 100000 nM; GI50 [39]: 417 nM; TGI [39]: 15100 nM; GI50 [40]: 233 nM; TGI [40]: 707 nM; GI50 [41]: 766 nM; TGI [41]: > 100000 nM; GI50 [42]: 362 nM; TGI [42]: > 37800 nM; GI50 [43]: 316 nM; TGI [43]: 1910 nM; GI50 [44]: 1140 nM; TGI [44]: > 100000 nM; GI50 [45]: 3420 nM; TGI [45]: > 100000 nM; GI50 [46]: 500 nM; TGI [46]: > 46500 nM; GI50 [47]: 794 nM; TGI [47]: > 100000 nM; GI50 [48]: 831 nM; TGI [48]: > 52300 nM; GI50 [49]: 518 nM; TGI [49]: > 100000 nM; GI50 [50]: 203 nM; TGI [50]: 774 nM; GI50 [51]: 376 nM; TGI [51]: 7840 nM; GI50 [52]: 527 nM; TGI [52]: > 100000 nM; GI50 [53]: 561 nM; TGI [53]: > 100000 nM; GI50 [54]: 22700 nM; TGI [54]: > 100000 nM; GI50 [55]: 510 nM; TGI [55]: > 39500 nM; GI50 [56]: > 43500 nM; TGI [56]: > 100000 nM; GI50 [57]: 514 nM; TGI [57]: > 100000 nM; GI50 [58]: 562 nM; TGI [58]: > 100000 nM
